From article PMC2866084 (Journal of medicinal chemistry, 2010)

Key:
in vivo = conditions: male, CD-1, mouse, po, 50 mg/kg
[1] = Double-sink PAMPA permeability; assay type: in vitro ADME; conditions: pH 7.4
[2] = test system: Salmonella typhimurium tester strains TA98 and TA100; test: Ames assay for mutagenicity and cytotoxicity screening; assay type: cell-based; conditions: TA98 and TA100, with and without S-9
CD-1 mice = test: Dose range-finding toxicity study in male and female CD-1 mice; conditions: for histopathology: after 7 days oral treatment; for body weights compared to vehicle-treated controls: all treated mice, 7 days oral

concentration at 24 h (in vivo) [nM]	SMILES	Papp at 30 min, 50 μM [1] [×10⁻⁶ cm/s]	Bacterial mutagenicity, AMES test [2]	histopathology (CD-1 mice)	body weights compared to vehicle-treated controls (CD-1 mice)
< 11.8	CCN(CC)CCCC(C)Nc1ccnc2cc(Oc3ccccc3)ccc12 (centres unmarked) [Compound 1]	–	–	–	–
–	CCN(CC)CCCC(C)Nc1ccnc2cc(C(F)(F)F)ccc12 (centres unmarked) [Compound 3]	2700 ± 107	–	–	–
–	CCCN(CCCNc1ccnc2cc(Cl)ccc12)CC1CC1 [Compound 4]	1110 ± 176	no increase in mutagenicity	–	–
–	Clc1ccc2c(NCCCNCc3cccc4c3OCO4)ccnc2c1 [Compound 18, N-Benzo[1,3]dioxol-4-ylmethyl-N′-(7-chloro-quinolin-4-yl)-propane-1,3-diamine]	2400 ± 652	no increase in mutagenicity	no findings related to the administration of the test articles	remained normal
–	COc1cccc(CNCCCNc2ccnc3cc(Cl)ccc23)c1O [Compound 20, 2-{[3-(7-Chloro-quinolin-4-ylamino)-propylamino]-methyl}-6-methoxy-phenol]	1360 ± 214	–	no findings related to the administration of the test articles	remained normal
